This passage reports inhibition results from ChEMBL document CHEMBL5442219.

Structures are written as SMILES.

Holding throughout (conditions): Compound concentration 10 µM
The target of experiment [1] is Histamine H4 receptor (Homo sapiens) (UniProt Q9H3N8).
Experiment [2] deals with Histamine H1 receptor (Homo sapiens) (UniProt P35367).
Experiment [3] has as its target T1, D(4) dopamine receptor (Homo sapiens) (UniProt P21917).
T1 sequence (whole entry): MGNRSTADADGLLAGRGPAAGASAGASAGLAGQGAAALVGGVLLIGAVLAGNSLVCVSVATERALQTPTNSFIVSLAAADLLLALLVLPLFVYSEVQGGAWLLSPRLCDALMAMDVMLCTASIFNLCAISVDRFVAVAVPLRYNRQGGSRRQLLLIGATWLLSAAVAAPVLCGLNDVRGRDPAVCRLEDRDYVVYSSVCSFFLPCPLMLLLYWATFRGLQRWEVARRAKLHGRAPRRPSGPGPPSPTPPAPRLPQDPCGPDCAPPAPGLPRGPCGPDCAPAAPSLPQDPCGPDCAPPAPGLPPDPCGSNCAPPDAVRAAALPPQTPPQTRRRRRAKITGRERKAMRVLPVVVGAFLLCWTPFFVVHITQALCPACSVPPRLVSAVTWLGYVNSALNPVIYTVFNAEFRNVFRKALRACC

In experiment [4] the target is T2, 5-hydroxytryptamine receptor 1A (Homo sapiens) (UniProt P08908).
T2 sequence (whole entry): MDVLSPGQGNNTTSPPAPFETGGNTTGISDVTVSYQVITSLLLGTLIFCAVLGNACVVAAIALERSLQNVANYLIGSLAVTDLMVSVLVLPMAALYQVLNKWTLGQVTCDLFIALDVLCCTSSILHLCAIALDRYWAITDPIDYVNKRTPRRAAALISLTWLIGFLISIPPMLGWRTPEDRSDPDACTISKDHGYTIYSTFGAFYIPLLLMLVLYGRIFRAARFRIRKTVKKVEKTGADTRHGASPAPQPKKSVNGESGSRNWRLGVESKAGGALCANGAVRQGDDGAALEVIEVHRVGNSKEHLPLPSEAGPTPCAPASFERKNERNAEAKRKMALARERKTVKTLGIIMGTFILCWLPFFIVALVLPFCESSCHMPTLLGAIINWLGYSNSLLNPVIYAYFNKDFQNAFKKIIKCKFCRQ

For experiment [5], the target named is T3, Alpha-2C adrenergic receptor (Homo sapiens) (UniProt P18825).
T3 sequence (whole entry): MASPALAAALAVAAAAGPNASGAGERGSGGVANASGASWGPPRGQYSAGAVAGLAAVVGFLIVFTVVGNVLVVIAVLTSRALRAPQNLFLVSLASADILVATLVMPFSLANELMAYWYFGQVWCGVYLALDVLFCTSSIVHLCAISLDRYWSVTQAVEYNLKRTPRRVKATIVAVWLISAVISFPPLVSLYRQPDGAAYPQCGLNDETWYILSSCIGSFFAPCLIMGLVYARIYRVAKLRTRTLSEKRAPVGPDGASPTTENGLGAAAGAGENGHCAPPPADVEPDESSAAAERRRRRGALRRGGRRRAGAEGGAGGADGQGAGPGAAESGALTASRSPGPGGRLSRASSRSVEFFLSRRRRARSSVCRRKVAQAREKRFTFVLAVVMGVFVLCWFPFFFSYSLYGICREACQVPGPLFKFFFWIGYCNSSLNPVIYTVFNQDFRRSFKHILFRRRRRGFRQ

Experiment [6] has as its target T4, 5-hydroxytryptamine receptor 2C (Homo sapiens) (UniProt P28335).
T4 sequence (whole entry): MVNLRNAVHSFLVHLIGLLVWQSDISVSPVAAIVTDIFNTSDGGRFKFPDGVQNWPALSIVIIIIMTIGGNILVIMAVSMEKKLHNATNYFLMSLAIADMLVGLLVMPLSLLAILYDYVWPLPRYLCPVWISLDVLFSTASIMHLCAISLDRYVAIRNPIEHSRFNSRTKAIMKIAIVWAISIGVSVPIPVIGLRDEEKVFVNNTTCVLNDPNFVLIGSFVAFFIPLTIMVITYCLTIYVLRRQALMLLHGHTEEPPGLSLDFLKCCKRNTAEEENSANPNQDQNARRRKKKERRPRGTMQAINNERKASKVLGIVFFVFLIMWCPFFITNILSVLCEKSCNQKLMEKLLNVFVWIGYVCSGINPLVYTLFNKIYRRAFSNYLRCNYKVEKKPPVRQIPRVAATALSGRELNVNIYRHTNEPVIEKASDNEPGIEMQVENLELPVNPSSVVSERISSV

The target of experiment [7] is Translocator protein (Homo sapiens) (UniProt P30536).
The target in experiment [8] is Sigma intracellular receptor 2 (Homo sapiens) (UniProt Q5BJF2).
Experiment [9] deals with 5-hydroxytryptamine receptor 2A (Homo sapiens) (UniProt P28223).
Experiment [10] has as its target 5-hydroxytryptamine receptor 5A (Homo sapiens) (UniProt P47898).
The target of experiment [11] is T5, 5-hydroxytryptamine receptor 3A (Homo sapiens) (UniProt P46098).
T5 sequence (whole entry): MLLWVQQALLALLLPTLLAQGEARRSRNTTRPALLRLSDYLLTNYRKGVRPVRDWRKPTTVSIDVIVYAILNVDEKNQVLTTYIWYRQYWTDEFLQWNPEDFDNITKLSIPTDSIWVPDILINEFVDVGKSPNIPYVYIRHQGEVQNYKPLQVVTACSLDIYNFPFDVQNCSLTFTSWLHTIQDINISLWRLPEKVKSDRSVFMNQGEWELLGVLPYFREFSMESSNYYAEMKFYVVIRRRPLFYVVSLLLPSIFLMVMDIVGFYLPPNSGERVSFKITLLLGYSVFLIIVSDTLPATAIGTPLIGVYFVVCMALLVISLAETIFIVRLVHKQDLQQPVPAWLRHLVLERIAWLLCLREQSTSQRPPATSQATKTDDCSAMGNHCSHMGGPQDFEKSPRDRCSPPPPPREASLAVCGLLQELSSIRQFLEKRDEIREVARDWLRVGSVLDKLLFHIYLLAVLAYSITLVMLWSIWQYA

For experiment [12], the target named is 5-hydroxytryptamine receptor 1E (Homo sapiens) (UniProt P28566).
For experiment [13], the target named is Kappa-type opioid receptor (Homo sapiens) (UniProt P41145).
Experiment [14] addresses 5-hydroxytryptamine receptor 2B (Homo sapiens) (UniProt P41595).
The target in experiment [15] is D(3) dopamine receptor (Homo sapiens) (UniProt P35462).
D(3) dopamine receptor (Homo sapiens), sequence (P35462 whole entry): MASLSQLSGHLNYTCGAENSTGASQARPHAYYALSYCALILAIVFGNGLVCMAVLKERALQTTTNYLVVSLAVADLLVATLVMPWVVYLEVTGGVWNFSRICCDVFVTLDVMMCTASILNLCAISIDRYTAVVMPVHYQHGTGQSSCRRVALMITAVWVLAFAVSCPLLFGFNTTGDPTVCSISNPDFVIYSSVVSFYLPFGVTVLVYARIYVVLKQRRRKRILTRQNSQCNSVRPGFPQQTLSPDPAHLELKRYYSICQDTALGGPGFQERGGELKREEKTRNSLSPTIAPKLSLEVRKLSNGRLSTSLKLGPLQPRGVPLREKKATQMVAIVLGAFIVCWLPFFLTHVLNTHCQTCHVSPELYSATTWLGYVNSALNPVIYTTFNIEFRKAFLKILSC

Sigma intracellular receptor 2 (Homo sapiens), sequence (Q5BJF2 whole entry): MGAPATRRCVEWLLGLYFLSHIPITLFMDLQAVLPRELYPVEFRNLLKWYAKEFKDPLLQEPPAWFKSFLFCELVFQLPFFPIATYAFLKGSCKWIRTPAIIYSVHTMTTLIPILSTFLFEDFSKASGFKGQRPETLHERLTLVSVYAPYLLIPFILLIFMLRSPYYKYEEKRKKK
5-hydroxytryptamine receptor 1E (Homo sapiens), sequence (P28566 whole entry): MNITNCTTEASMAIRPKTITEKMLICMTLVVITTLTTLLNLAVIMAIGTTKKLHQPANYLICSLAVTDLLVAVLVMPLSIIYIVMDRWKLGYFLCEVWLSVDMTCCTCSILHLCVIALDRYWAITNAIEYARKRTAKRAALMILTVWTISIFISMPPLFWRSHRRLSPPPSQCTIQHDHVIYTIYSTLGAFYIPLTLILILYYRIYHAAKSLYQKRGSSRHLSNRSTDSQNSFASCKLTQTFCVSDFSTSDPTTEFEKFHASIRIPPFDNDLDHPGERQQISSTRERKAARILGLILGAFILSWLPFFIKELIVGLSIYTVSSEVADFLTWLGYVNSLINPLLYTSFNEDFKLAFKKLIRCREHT
Translocator protein (Homo sapiens), sequence (P30536 whole entry): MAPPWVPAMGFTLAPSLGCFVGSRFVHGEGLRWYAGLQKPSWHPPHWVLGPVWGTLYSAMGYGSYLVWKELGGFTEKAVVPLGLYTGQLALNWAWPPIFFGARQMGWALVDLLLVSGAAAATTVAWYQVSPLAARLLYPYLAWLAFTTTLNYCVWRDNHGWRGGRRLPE
5-hydroxytryptamine receptor 2A (Homo sapiens), sequence (P28223 whole entry): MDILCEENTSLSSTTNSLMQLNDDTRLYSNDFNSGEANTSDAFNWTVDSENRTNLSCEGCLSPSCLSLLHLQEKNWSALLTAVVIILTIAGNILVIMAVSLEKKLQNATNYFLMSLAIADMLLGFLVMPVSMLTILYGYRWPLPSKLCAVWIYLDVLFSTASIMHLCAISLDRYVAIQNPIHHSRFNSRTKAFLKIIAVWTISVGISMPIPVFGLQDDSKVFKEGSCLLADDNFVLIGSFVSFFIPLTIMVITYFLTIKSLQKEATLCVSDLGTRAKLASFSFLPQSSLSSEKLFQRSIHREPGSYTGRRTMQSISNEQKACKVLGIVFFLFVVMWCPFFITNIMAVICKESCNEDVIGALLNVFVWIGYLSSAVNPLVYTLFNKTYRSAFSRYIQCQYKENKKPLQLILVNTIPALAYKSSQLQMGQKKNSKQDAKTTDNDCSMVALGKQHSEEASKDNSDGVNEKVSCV
Histamine H4 receptor (Homo sapiens), sequence (Q9H3N8 whole entry): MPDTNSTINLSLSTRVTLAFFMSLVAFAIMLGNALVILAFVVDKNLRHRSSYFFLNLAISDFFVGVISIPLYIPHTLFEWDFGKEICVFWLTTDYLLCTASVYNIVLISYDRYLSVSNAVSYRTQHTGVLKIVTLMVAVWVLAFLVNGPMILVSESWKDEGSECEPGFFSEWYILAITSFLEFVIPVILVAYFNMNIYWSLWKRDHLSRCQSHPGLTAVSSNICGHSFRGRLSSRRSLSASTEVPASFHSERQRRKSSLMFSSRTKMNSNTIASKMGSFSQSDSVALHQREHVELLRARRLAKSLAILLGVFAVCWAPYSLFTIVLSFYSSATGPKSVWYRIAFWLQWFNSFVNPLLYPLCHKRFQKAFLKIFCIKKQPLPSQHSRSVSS
5-hydroxytryptamine receptor 5A (Homo sapiens), sequence (P47898 whole entry): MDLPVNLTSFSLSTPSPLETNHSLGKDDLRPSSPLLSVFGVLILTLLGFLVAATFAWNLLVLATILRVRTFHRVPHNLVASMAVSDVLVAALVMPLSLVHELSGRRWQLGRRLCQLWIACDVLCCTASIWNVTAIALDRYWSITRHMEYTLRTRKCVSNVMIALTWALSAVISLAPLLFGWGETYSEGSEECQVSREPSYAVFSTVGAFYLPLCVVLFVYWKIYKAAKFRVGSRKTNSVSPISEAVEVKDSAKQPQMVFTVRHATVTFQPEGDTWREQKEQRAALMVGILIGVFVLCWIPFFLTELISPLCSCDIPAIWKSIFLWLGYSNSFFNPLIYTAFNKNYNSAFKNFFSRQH
5-hydroxytryptamine receptor 2B (Homo sapiens), sequence (P41595 whole entry): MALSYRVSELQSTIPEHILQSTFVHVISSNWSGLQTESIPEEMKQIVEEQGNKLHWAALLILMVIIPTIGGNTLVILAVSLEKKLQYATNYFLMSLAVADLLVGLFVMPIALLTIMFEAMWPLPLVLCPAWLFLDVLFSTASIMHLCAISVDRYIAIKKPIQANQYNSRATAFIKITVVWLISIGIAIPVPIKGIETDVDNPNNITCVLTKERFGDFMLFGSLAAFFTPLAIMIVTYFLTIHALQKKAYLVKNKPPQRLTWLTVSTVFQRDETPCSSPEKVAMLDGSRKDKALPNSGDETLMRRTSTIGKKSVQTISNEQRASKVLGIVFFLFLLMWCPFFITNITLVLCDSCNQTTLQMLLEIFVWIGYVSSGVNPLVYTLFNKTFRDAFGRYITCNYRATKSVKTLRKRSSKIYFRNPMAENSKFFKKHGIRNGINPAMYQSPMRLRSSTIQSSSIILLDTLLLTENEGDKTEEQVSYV
Kappa-type opioid receptor (Homo sapiens), sequence (P41145 whole entry): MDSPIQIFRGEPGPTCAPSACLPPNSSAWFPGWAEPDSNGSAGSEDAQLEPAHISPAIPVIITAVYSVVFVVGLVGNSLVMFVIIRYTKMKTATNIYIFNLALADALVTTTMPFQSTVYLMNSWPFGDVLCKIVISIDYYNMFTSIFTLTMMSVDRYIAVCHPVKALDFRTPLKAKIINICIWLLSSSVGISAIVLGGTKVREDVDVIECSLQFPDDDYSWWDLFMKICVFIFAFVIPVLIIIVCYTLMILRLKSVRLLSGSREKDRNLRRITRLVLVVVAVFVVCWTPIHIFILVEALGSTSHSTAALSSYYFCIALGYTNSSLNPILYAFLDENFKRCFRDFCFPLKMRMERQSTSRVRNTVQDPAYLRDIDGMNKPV
Histamine H1 receptor (Homo sapiens), sequence (P35367 whole entry): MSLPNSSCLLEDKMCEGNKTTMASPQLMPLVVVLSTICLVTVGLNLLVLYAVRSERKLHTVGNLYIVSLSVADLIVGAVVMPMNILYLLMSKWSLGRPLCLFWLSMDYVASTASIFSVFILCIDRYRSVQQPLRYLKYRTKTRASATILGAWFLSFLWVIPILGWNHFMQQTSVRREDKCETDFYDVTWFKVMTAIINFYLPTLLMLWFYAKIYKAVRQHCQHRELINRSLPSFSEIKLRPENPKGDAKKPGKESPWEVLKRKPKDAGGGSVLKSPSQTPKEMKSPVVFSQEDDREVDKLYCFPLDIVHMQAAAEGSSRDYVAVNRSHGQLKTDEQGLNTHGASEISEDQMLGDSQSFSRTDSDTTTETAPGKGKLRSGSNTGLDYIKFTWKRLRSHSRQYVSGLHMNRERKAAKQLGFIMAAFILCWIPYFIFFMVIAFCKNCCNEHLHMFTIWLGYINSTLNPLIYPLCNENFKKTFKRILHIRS

For the compound `O=c1ccn([C@@H]2O[C@H](COP(=O)(O)OP(=O)(O)OP(=O)(O)O)[C@@H](O)[C@H]2O)c(=O)[nH]1`, the inhibition – broadly, the relative decrease from the control value, in per cent – in experiment [1] was 4.53%; in experiment [2], -0.29%; in experiment [3], 53.3%; in experiment [4] it was 26.3%; in experiment [5], 6.85%; in [6], 9.66%. Further, the inhibition was 56.6% in experiment [7]; 34% in experiment [8]; 46.4% in experiment [9]; 16.9% in experiment [10]; -3.36% in [11]; -2.1% in experiment [12]. Further, the inhibition in experiment [13] is 47.6%; in [14] it was -4.24%; in experiment [15], 22.3%.

As to `FC(F)(F)c1cccc(-c2noc(-c3cc(-c4ccccc4)c(C(F)(F)F)s3)n2)c1`, the inhibition was 17% in experiment [2]; -0.65% in experiment [3]; 2.88% in [4]; -0.68% in experiment [5]; 1.03% in [6]; 5.27% in experiment [7]. Further, the inhibition in experiment [9] is -1.97%; in experiment [10], 18.8%; in experiment [11], 0.39%; in experiment [12], 10.4%; in experiment [13], 46.5%; in [14] it was 10.1%.

For `CNc1nc(NCc2ccc(NS(C)(=O)=O)cc2Cl)cc(-c2ccccn2)n1`, the inhibition in experiment [1] is 0.58%; in experiment [2] it was 12%; in [3], 2.1%; in experiment [4] it was 0.99%; in experiment [5], 50.4%; in experiment [6], 55.4%. The inhibition in experiment [7] is 54.8%; in experiment [8] it was 39.1%; in [9], 60.3%; in [10] it was 75.4%; in experiment [11], -0.08%; in experiment [12], -3.24%. Also, the inhibition is 73.2% in experiment [13], 66.5% in experiment [14] and 56.5% in experiment [15].

For `CCCCCCCCCCCCC/C=C/[C@@H](O)[C@@H](N)COP(=O)(O)O`, the inhibition in experiment [1] was 7.9%; in [2], 14.3%; in experiment [4], -8.27%; in [5], -4.87%; in [6], -2.94%; in experiment [7] it was 64.6%. In addition, the inhibition was 79.4% in [8]; -3.21% in experiment [9]; -4.35% in [10]; -1.93% in experiment [11]; 14.4% in experiment [12]; 6.18% in experiment [13]. Further, the results for the inhibition in [14] and in experiment [15] were 11.5% and 1.79%, respectively.

`OCc1cc(C(O)CNCCCCCCOCCCCc2ccccc2)ccc1O` (centres undefined): the inhibition in [1] was 6.15%; in experiment [2] it was 27.7%; in experiment [3], 57.4%; in experiment [4] it was 27.8%; in [5] it was 45.6%; in experiment [6], 60.6%. Besides, the inhibition was -0.39% in [7]; 102% in experiment [8]; 78.2% in experiment [9]; 9.07% in experiment [10]; 4.21% in [11]; 17.4% in [12]. Moreover, the figures for the inhibition in experiment [13], in experiment [14] and in [15] were 9.07%, 90.4% and 59.6%, respectively.

Turning to `COc1ccc2cc(S(=O)(=O)N[C@H](CC(=O)N[C@H](Cc3ccc(CN4[C@H](C)CCC[C@@H]4C)cc3)C(=O)N(C)C(C)C)c3ccc4c(c3)OCO4)ccc2c1`, the inhibition in experiment [1] was 9.34%; in [2], 33.1%; in experiment [3], 33.2%; in [4] it was -7.48%; in experiment [5] it was 71.8%; in experiment [6], 19.7%. Besides, the inhibition in experiment [7] is 0.6%; in experiment [8] it was 97.7%; in experiment [9], 28.8%; in [10] it was 20.3%; in [11], 12.8%; in experiment [13] it was 96.7%. The inhibition in experiment [14] was 27.5%; in [15], 26%.

`Cc1nc(C#Cc2ccnc(Cl)c2)c(C)n1-c1ccc(OC(F)(F)F)cc1`: the inhibition in experiment [1] was -9.98%; in experiment [2], -4.73%; in [3] it was -0.11%; in [4], 10.3%; in experiment [5], -5.37%; in experiment [6], 1.86%. The inhibition in [7] is 64.3%; in experiment [8] it was 75.5%; in experiment [9] it was 16.1%; in experiment [10] it was 30%; in experiment [11], -5.17%; in [12], 20.5%. Moreover, the values for the inhibition in experiment [13], in experiment [14] and in [15] were 5.17%, 19.6% and 13.1%, respectively.

With `NC(=O)[C@@H]1CCCN1C(=O)[C@H](Cc1c[nH]cn1)NC(=O)[C@@H]1CCC(=O)N1`, the inhibition in [1] was 8.04%; in experiment [2], 9.67%; in experiment [3], 18.4%; in [5], 49.8%; in experiment [6] it was -0.43%; in experiment [7] it was 73.2%. Moreover, the inhibition in [8] is 35%; in experiment [9], 23.5%; in experiment [10], 5.27%; in experiment [11], 8.73%; in experiment [12], -5.34%; in experiment [13] it was 6.58%. Also, the values for the inhibition in [14] and in experiment [15] were 18.6% and 4.54%, respectively.
